Experimental data reported in US8242166B2, “C(10) ethyl ester and C(10) cyclopropyl ester substituted taxanes” (Florida State University Research Foundation, Inc., priority 2008, dated 2012).
Like-named read-outs stand apart in the source and are kept apart here.

Experiments:
[1] = tested on: human MX-1 breast carcinoma; assay: MX1 xenograft study e219R1, i.v. single dose (Example 17); details: for CR (complete regression) / NTR (non-treatment-related death) / PR (partial regression) / TFS (tumor-free survivor) / TR (treatment-related death): n=5
PANC-1 = assay: MTT cytotoxicity (IC50), PANC-1; format: cell-based; details: Homo sapiens, 72 h, read-out: IN Vitro IC50 (nm) Panc
Description: (§1) Compound 17932 was tested in four of these cell lines, while the remaining compounds were tested in all of these cell lines. All cell lines were maintained in RPMI-1640 tissue culture medium (TCM, supplemented with antibiotics and 10% fetal bovine serum) and cultured at 37° C. in humidified air containing 5% CO2. To assess the antiproliferative effects of the test compounds, 172 μL of tumor cell suspension (1.45×10^4 cells/ml) were added to each well of a 96-well plate and incubated for 24 h at 37° C. in 5% CO2 in air to allow cells to adhere. Seven 2-fold drug dilutions in TCM/DMSO were performed in triplicate in separate 96-well plates and 28 μL was transferred to the wells containing tumor cells (200 μL final volume/0.1% DMSO). Plates were incubated for 72 h and cell viability was determined by adding 50 μL of warm TCM containing 5 mg/mL MTT (3-[4,5-dimethylthiazol-2-yl]-2,5-diphenyltetrazolium bromide) to each well and incubating for 1 h at 37° C. Plates were processed and the absorbances of the resulting solutions were measured by a plate reader at 570 nm. […] (GraphPad Prism version 4.00 for Windows). Studies were conducted by Taxolog, Inc., Tallahassee, Fla.

SK-MEL-28 = assay: MTT cytotoxicity (IC50), SK-MEL-28; format: cell-based; details: Homo sapiens, 72 h, read-out: IN Vitro IC50 (nm) ske-mel28
Description: as §1

HOP-18 = assay: MTT cytotoxicity (IC50), HOP-18; format: cell-based; details: Homo sapiens, 72 h, read-out: IN Vitro IC50 (nm) HOP18
Description: as §1

786-0 = assay: MTT cytotoxicity (IC50), 786-0; format: cell-based; details: Homo sapiens
Description: as §1

[2] = tested on: HT29 human tumor xenografts; assay: HT29 xenograft study e212, oral and i.v. (Example 26); details: every four day schedule for four doses
Description: (§2) The formulation for oral studies was an ethanol and Cremophor formulation while the formulation for compound 18365 and compound 19244 dosed i.v. was 5% ethanol and 95% Liposyn II 20%.

[3] = tested on: human A375 melanoma xenograft; assay: A375 xenograft study e209 (Example 27); details: 30 mg/kg iv q4d × 4
Description: The endpoint was a tumor volume of 2,000 mm^3 and the study was terminated on Day 56. Efficacy was assessed by tumor growth delay and the number of partial and complete regressions. Animals with a CR that persisted through Day 56 were classified as long-term tumor-free survivors (TFS).

HCT116 = assay: MTT cytotoxicity (IC50), HCT116; format: cell-based; details: Homo sapiens, HCT-116, 72 h, read-out: IN Vitro IC50 (nm) HCT116
Description: as §1, with “All” for “Compound 17932 was tested in four of these cell lines, while the remaining compounds were tested in all of these cell lines. All”

[4] = tested on: HT29 human tumor xenografts; assay: HT29 xenograft study e210, oral and i.v. (Example 25); details: for CR (complete regression) / NTR NTRa/u / NTR NTRm / PR (partial regression) / TFS (tumor-free survivor) / TR (treatment-related death): n=6
Description: as §2

[5] = tested on: HT29 human tumor xenografts; assay: HT29 xenograft study e139 (Example 23); format: in vivo, nude mice
TK-10 = assay: MTT cytotoxicity (IC50), TK-10; format: cell-based; details: Homo sapiens, 72 h, read-out: IN Vitro IC50 (nm) TK10
Description: as §1

A549 = assay: MTT cytotoxicity (IC50), A549; format: cell-based; details: Homo sapiens, 72 h, read-out: IN Vitro IC50 (nm) A549
Description: as §1

With `CC(=O)O[C@@]12CO[C@@H]1C[C@H](O)[C@@]1(C)C(=O)[C@H](OC(=O)C3CC3)C3=C(C)[C@@H](OC(=O)[C@H](O)[C@@H](NC(=O)OC4CCC4)c4cccs4)C[C@@](O)([C@@H](OC(=O)c4ccccc4)C12)C3(C)C` (some centres unmarked) [Compound 18365] the “% TGD” value ([1]; 7.5 mg/kg iv qd × 1) was 12.92%, the “BW Nadir” value ([1]; 7.5 mg/kg iv qd × 1) was −3.8% (4) and the “Median TTE” value ([1]; 7.5 mg/kg iv qd × 1) was 36.29 days. The T-C ([1]; 7.5 mg/kg iv qd × 1) was 4.15 days, the “activity (statistical significance)” value ([1]; 7.5 mg/kg iv qd × 1) was “non-significant activity” and the “CR (complete regression)” value ([1]; 7.5 mg/kg iv qd × 1) was 0. The “NTR (non-treatment-related death)” value ([1]; 7.5 mg/kg iv qd × 1) was 0, the “PR (partial regression)” value ([1]; 7.5 mg/kg iv qd × 1) was 0 and the “TFS (tumor-free survivor)” value ([1]; 7.5 mg/kg iv qd × 1) was 0. For the same molecule, the “TR (treatment-related death)” value ([1]; 7.5 mg/kg iv qd × 1) was 0, the “% TGD” value ([1]; 15 mg/kg iv qd × 1) was 76.26% and the “BW Nadir” value ([1]; 15 mg/kg iv qd × 1) was −6.8% (5). For the same molecule, the “MTV (n), Day 60” value ([1]; 15 mg/kg iv qd × 1) was 1098.50 (1) mm^3, the “Median TTE” value ([1]; 15 mg/kg iv qd × 1) was 56.65 days and the T-C ([1]; 15 mg/kg iv qd × 1) was 24.51 days. The “maximum group mean BW loss” value ([1]; 15 mg/kg iv qd × 1) was 6.8%, the “CR (complete regression)” value ([1]; 15 mg/kg iv qd × 1) was 2 and the “NTR (non-treatment-related death)” value ([1]; 15 mg/kg iv qd × 1) was 0. For the same molecule, the “PR (partial regression)” value ([1]; 15 mg/kg iv qd × 1) was 1, the “TR (treatment-related death)” value ([1]; 15 mg/kg iv qd × 1) was 0 and the “% TGD” value ([1]; 30 mg/kg iv qd × 1) was 89.79%. The “BW Nadir” value ([1]; 30 mg/kg iv qd × 1) was −16.0% (5), the “MTV (n), Day 60” value ([1]; 30 mg/kg iv qd × 1) was 0.00 (5) mm^3 and the “Median TTE” value ([1]; 30 mg/kg iv qd × 1) was 61 days. The T-C ([1]; 30 mg/kg iv qd × 1) was 28.86 days, the “maximum group mean BW loss” value ([1]; 30 mg/kg iv qd × 1) was 16% and the “CR (complete regression)” value ([1]; 30 mg/kg iv qd × 1) was 5. For the same molecule, the “NTR (non-treatment-related death)” value ([1]; 30 mg/kg iv qd × 1) was 0, the “PR (partial regression)” value ([1]; 30 mg/kg iv qd × 1) was 0 and the “TFS (tumor-free survivor)” value ([1]; 30 mg/kg iv qd × 1) was 5. For the same molecule, the “TR (treatment-related death)” value ([1]; 30 mg/kg iv qd × 1) was 0, the minimal effective dose ([1]; iv qd × 1, lowest dose with statistically significant results and at least one D61 survivor or regression) was 15 mg/kg and the IC50 (PANC-1) was 1200 pM. The IC50 (SK-MEL-28) was 900 pM, the IC50 (HOP-18) was 700 pM and the IC50 (786-0; MTT, 72 h, read-out: IN Vitro IC50 (nm) 786-0) was 1100 pM. The IC50 (786-0; Resistance MDR1+, read-out: 786-0 Renal (Table 4, quantity not named; IC50 values as Table 2)) was 1100 pM, the “activity in the HT29 xenograft tumor model” value [2] was “oral and IV activity” and the “BW Nadir” value [3] was −9.8% (14). The “MTV(n), Day 56” value [3] was 0.00 (6) mm^3, the “CR (complete regression)” value ([3]; n=6) was 5 and the “NTR NTRa/u” value ([3]; n=6) was 0. The “NTR NTRm” value ([3]; n=6) was 0, the “PR (partial regression)” value ([3]; n=6) was 0 and the “TFS (tumor-free survivor)” value ([3]; n=6) was 5. For the same molecule, the “TR (treatment-related death)” value ([3]; n=6) was 0, the “% TGD” value ([3]; vehicle EL) was 210.08% and the “Median TTE” value ([3]; vehicle EL) was 56 days. For the same molecule, the T-C ([3]; vehicle EL) was 37.94 days, the IC50 (HCT116) was 400 pM and the “% TGD” value ([4]; 25 mg/kg iv q4d × 4) was 214.3%. For the same molecule, the “BW Nadir” value ([4]; 25 mg/kg iv q4d × 4) was −7.6% (16), the “MTV (n), Day 60” value ([4]; 25 mg/kg iv q4d × 4) was 5.00 (6) mm^3 and the “Median TTE” value ([4]; 25 mg/kg iv q4d × 4) was 60 days. The T-C ([4]; 25 mg/kg iv q4d × 4) was 40.91 days, the “CR (complete regression)” value ([4]; 25 mg/kg iv q4d × 4) was 4 and the “NTR NTRa/u” value ([4]; 25 mg/kg iv q4d × 4) was 0. The “NTR NTRm” value ([4]; 25 mg/kg iv q4d × 4) was 0, the “PR (partial regression)” value ([4]; 25 mg/kg iv q4d × 4) was 2 and the “TFS (tumor-free survivor)” value ([4]; 25 mg/kg iv q4d × 4) was 4. For the same molecule, the “TR (treatment-related death)” value ([4]; 25 mg/kg iv q4d × 4) was 0, the “% TGD” value ([4]; 50 mg/kg po q4d × 4) was 214.3% and the “BW Nadir” value ([4]; 50 mg/kg po q4d × 4) was −7.6% (16). For the same molecule, the “MTV (n), Day 60” value ([4]; 50 mg/kg po q4d × 4) was 8.75 (6) mm^3, the “Median TTE” value ([4]; 50 mg/kg po q4d × 4) was 60 days and the T-C ([4]; 50 mg/kg po q4d × 4) was 40.91 days. The “CR (complete regression)” value ([4]; 50 mg/kg po q4d × 4) was 4, the “NTR NTRa/u” value ([4]; 50 mg/kg po q4d × 4) was 0 and the “NTR NTRm” value ([4]; 50 mg/kg po q4d × 4) was 0. The “PR (partial regression)” value ([4]; 50 mg/kg po q4d × 4) was 2, the “TFS (tumor-free survivor)” value ([4]; 50 mg/kg po q4d × 4) was 3 and the “TR (treatment-related death)” value ([4]; 50 mg/kg po q4d × 4) was 0. The “activity in the HT29 xenograft tumor model” value ([4]; every four day schedule for four doses) was “oral and IV activity”, the 61-day survivors ([5]; 25 mg/kg i.v. q4d×4, six mice) was “five” and the CR responses ([5]; 25 mg/kg i.v. q4d×4, six mice) was 2. The PR responses ([5]; 25 mg/kg i.v. q4d×4, six mice) was 4, the “Day 51 mm^3 (tumor size)” value ([5]; 25 mg/kg iv q4d × 4) was 112.8 mm^3 and the “Day 54 mm^3 (tumor size)” value ([5]; 25 mg/kg iv q4d × 4) was 124.7 mm^3. The “Max. BW Loss %; Day” value ([5]; 25 mg/kg iv q4d × 4) was −17.1%; Day 16, the “Number of Death NTR” value ([5]; 25 mg/kg iv q4d × 4, N=6) was 0 and the “Number of Death TR” value ([5]; 25 mg/kg iv q4d × 4, N=6) was 1. The IC50 (TK-10) was 500 pM and the IC50 (A549) was 500 pM.
